We go through 13 compounds from article PMC5748027, “Computer-aided design of multi-target ligands at A1R, A2AR and PDE10A, key proteins in neurodegenerative diseases” (Journal of Cheminformatics, 2017).

For data set [1], the target named is T1, A1 human adenosine receptor (A1R) (Homo sapiens, UniProt P30542).
T1 construct: expressed in transfected cells; host or cells: CHO
T1 sequence (P30542 1-326): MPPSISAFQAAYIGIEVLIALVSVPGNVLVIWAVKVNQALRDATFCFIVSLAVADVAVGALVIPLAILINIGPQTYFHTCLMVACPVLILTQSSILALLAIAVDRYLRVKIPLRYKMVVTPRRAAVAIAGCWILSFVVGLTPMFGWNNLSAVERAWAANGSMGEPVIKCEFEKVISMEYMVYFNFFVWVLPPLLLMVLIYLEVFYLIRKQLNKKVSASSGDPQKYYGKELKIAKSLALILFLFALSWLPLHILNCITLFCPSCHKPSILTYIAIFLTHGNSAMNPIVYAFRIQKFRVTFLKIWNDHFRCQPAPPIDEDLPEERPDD
Put plainly: Radioligand binding competition assay, human A1 receptor in transfected CHO cells. The settings on record: for Ki: Cheng-Prusoff approximation; for inhibition at 0.1 µM: 0.1 µM compound, read-out: % displacement at 0.1 μM (A1R).
Description: Pharmacological evaluation was performed in a radioligand binding competition assay, using A1, A2A, A2B, and A3 human receptors expressed in transfected CHO (A1), HeLa (A2A and A3), and HEK-293 (A2B) according to the procedure reported by Bosch et al. [78].

Data set [2] deals with T2, A2A human adenosine receptor (A2AR) (Homo sapiens, UniProt P29274).
T2 construct: expressed in transfected cells; host or cells: HeLa
The data set can be described thus: Radioligand binding competition assay, human A2A receptor in transfected HeLa cells. To be noted: for % displacement at 0.1 μM (A2AR): 0.1 µM compound; for Ki: Cheng-Prusoff approximation. On the procedure:
(§1) Bioactivity testing was performed using A1 and A2A human adenosine receptors expressed in transfected CHO (A1) and HeLa (A2A) cells, as well as AD293 cells that were transiently transfected with human PDE10A. Table 1 includes the list of synthesized 4,6-substituted 2-amino-pyridin-3-carbonitriles, along with their Ki values against A1R, A2AR, and IC50 values against PDE10A.
(§2) Pharmacological evaluation was performed in a radioligand binding competition assay, using A1, A2A, A2B, and A3 human receptors expressed in transfected CHO (A1), HeLa (A2A and A3), and HEK-293 (A2B) according to the procedure reported by Bosch et al..

Data set [3] addresses T3, A2B human receptor (A2BR) (Homo sapiens, UniProt P29275).
T3 construct: expressed in transfected cells; host or cells: HEK-293
T3 sequence (P29275 1-332): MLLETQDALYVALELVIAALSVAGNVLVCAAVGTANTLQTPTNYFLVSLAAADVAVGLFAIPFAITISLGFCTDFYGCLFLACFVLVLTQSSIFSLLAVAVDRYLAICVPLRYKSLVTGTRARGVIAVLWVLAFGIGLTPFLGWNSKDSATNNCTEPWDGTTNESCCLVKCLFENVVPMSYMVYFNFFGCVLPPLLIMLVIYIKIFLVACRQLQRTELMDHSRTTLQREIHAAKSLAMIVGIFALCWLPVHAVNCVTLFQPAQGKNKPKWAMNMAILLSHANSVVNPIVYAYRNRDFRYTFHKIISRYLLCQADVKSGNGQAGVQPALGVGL
Put plainly: Radioligand binding competition assay, human A2B receptor in transfected HEK-293 cells. The settings on record: 0.1 µM compound; read-out: percentage displacement at 0.1µM (A2BR). How it is done:
as §2

The target in data set [4] is T4, A3 human receptor (A3R) (Homo sapiens, UniProt P0DMS8).
T4 construct: expressed in transfected cells; host or cells: HeLa
T4 sequence (P0DMS8 1-318): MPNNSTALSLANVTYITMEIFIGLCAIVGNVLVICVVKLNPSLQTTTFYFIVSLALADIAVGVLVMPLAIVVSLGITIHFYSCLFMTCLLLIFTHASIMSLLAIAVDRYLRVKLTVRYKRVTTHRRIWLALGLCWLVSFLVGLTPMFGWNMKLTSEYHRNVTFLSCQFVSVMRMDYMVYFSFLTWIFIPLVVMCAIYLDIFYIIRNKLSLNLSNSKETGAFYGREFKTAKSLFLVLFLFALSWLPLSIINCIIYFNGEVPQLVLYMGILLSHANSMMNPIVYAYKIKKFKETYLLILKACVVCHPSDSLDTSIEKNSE
The data set can be described thus: Radioligand binding competition assay, human A3 receptor in transfected HeLa cells. To be noted: 0.1 µM compound; read-out: percentage displacement at 0.1µM (A3R). How it is done:
as §2

For data set [5], the target named is T5, human PDE10A (Homo sapiens, UniProt Q9Y233).
T5 construct: expressed in transfected cells; host or cells: AD293 (transient transfection)
Put plainly: Phosphodiesterase activity, AD293 cells transiently transfected with human PDE10A. The data set is classed as biochemical. To be noted: for inhibition at 10 µM: read-out: % inhibition at 10 μM (PDE10A), 10 μM compound; for IC50: mean of 3 experiments in duplicate. How it is done:
as §1
(§3) The activity measurements against the phosphodiesterases PDE7A, PDE7B, PDE9A and PDE10A were performed using AD293 cells that were transiently and separately transfected with human PDE7A, PDE7B, PDE9A, and PDE10A following the procedure described by Shipe et al..

Data set [6] concerns the target T6, human PDE7A (Homo sapiens, UniProt Q13946).
T6 construct: expressed in transfected cells; host or cells: AD293 (transient transfection)
Put plainly: Phosphodiesterase activity, AD293 cells transiently transfected with human PDE7A. The data set is classed as biochemical. To be noted: for inhibition at 10 µM: 10 µM compound, read-out: Percentage inhibition at 10µM (PDE7A). How it is done: as §3

In data set [7] the target is T7, human PDE7B (Homo sapiens, UniProt Q9NP56).
T7 construct: expressed in transfected cells; host or cells: AD293 (transient transfection)
Put plainly: Phosphodiesterase activity, AD293 cells transiently transfected with human PDE7B. In kind it is biochemical. To be noted: for inhibition at 10 µM: 10 µM compound, read-out: Percentage inhibition at 10µM (PDE7B). On the procedure:
as §3

Data set [8] concerns the target T8, human PDE9A (Homo sapiens, UniProt O76083).
T8 construct: expressed in transfected cells; host or cells: AD293 (transient transfection)
Put plainly: Phosphodiesterase activity, AD293 cells transiently transfected with human PDE9A. To be noted: 10 µM compound; read-out: Percentage inhibition at 10µM (PDE9A). In kind it is biochemical. How it is done:
as §3

T6 sequence (Q13946 whole entry): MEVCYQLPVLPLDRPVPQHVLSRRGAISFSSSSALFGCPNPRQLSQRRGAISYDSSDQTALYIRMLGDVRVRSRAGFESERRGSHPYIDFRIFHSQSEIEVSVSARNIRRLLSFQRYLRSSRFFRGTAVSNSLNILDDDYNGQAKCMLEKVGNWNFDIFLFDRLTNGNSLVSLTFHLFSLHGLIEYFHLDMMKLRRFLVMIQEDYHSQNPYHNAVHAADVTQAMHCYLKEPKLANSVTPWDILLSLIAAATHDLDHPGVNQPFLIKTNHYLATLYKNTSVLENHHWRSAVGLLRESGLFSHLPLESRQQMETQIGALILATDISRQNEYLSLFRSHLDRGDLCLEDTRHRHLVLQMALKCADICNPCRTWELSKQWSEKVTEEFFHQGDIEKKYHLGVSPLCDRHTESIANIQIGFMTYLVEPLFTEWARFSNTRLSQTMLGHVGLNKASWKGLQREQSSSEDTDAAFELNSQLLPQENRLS
T2 sequence (P29274 whole entry): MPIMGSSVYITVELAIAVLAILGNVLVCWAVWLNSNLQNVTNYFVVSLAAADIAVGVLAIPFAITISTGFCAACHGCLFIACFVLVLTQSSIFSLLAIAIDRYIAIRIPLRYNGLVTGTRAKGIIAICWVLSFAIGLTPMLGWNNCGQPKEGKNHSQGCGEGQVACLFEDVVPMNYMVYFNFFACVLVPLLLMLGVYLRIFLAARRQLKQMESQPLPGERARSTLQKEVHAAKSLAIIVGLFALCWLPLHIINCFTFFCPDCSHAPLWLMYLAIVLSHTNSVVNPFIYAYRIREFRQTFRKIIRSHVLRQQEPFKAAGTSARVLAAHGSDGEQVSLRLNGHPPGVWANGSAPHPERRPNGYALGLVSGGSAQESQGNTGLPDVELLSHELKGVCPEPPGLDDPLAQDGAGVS
T8 sequence (O76083 whole entry): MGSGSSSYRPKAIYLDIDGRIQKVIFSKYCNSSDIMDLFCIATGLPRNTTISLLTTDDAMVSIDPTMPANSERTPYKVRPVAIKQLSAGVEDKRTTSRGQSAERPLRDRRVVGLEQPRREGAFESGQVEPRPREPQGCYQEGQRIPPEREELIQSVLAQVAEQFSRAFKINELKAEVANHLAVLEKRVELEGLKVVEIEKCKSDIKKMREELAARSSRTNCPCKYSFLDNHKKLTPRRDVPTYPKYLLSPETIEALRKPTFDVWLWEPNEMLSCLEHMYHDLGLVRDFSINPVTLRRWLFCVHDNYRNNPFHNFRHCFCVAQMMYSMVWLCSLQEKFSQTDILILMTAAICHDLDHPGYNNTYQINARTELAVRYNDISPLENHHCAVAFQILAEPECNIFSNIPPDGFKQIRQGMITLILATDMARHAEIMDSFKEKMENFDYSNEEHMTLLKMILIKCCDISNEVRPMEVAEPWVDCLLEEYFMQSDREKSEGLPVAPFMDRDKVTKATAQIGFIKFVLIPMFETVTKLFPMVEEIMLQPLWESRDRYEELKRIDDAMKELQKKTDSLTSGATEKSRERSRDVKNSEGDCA
T7 sequence (Q9NP56 whole entry): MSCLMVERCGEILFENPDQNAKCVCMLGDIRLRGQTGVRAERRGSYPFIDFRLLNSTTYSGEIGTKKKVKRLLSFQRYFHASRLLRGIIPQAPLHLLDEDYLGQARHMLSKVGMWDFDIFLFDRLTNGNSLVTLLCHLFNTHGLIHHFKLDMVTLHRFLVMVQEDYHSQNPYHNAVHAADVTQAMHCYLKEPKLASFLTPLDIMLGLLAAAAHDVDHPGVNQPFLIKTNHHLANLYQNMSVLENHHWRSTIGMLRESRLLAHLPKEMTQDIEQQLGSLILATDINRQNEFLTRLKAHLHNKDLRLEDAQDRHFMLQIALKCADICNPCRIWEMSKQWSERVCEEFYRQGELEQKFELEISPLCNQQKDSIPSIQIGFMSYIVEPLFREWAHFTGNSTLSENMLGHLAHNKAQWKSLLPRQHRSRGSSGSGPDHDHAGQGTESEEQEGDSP
T5 sequence (Q9Y233 267-1055 limits assumed): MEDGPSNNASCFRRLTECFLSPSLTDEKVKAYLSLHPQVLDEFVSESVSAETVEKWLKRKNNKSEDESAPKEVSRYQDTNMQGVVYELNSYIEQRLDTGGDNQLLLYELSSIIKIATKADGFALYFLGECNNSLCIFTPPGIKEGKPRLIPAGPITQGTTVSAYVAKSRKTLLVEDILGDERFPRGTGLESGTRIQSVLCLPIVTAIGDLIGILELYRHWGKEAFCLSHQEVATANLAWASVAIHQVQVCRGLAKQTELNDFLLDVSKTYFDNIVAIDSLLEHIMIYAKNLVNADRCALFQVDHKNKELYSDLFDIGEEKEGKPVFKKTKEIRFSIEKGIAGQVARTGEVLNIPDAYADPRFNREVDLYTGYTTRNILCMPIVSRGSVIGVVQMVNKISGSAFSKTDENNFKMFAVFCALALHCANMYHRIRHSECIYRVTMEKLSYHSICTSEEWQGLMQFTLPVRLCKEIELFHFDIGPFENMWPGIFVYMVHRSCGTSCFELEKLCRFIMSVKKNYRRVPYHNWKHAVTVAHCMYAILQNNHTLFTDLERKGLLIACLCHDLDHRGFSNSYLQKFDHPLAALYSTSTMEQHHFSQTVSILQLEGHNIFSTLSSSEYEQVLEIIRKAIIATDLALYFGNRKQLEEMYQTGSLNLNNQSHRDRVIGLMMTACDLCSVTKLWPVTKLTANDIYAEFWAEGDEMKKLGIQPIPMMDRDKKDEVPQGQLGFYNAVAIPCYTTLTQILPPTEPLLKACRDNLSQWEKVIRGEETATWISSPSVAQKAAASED

As for `N#Cc1c(-c2ccccc2)cc(-c2ccc(F)cc2)nc1N` [Compound 1, 2-amino-6-(4-fluorophenyl)-4-phenylpyridine-3-carbonitrile], the affinity in data set [1], expressed as Ki, was 394 ± 12 nM. The “% displacement at 0.1 μM (A2AR)” value in [2] was 32%. Also, the inhibition at 0.1 µM in data set [3] was 2%; in data set [4], 27%. The inhibition at 10 µM came out at 22% in data set [5], 9% in [6], 28% in data set [7] and 1% in data set [8].

For `N#Cc1c(-c2ccccc2)cc(-c2ccc(O)cc2)nc1N` [Compound 2, 2-amino-6-(4-hydroxyphenyl)-4-phenylpyridine-3-carbonitrile], affinity in data set [1] was put at a Ki of 142 ± 7 nM. Further, the “% displacement at 0.1 μM (A2AR)” value in data set [2] is given as 38%. In addition, the inhibition at 0.1 µM in [3] and in data set [4] was 2% in each case. Besides, the inhibition at 10 µM came to 52% in data set [5], 47% in data set [6], 39% in data set [7] and 1% in data set [8].

Turning to `N#Cc1c(-c2ccccc2)cc(-c2nccs2)nc1N` [Compound 3, 2-amino-4-phenyl-6-(1,3-thiazol-2-yl)pyridine-3-carbonitrile], the melting point (commonly the temperature, or range, at which the solid turns liquid) lay within 154 to 156 °C. In addition, the inhibition at 0.1 µM in data set [1] turned out to be 12%. For the same compound, the “% displacement at 0.1 μM (A2AR)” value in data set [2] was 8%. In data set [3], the inhibition at 0.1 µM is 3%. Moreover, the inhibition at 0.1 µM in data set [4] came out at 6%. Also, inhibition in data set [5] was half-maximal at 2 ± 0.2 µM (IC50). Further, the inhibition at 10 µM in data set [6] was 24%. The inhibition at 10 µM in [7] came to 36%. For the same compound, the inhibition at 10 µM in data set [8] turned out to be 5%.

`Cn1cccc1-c1cc(-c2ccccc2)c(C#N)c(N)n1` [Compound 4, 2-amino-6-(1-methyl-1H-pyrrol-2-yl)-4-phenylpyridine-3-carbonitrile] showed a melting point of 152 to 153 °C. Besides, the inhibition at 0.1 µM in [1] came out at 26%. The “% displacement at 0.1 μM (A2AR)” value in data set [2] is on record as 32%. Further, the inhibition at 0.1 µM in [3] is 5%. For the same compound, the inhibition at 0.1 µM in data set [4] stood at 13%. For the same compound, the concentration for half-maximal inhibition (IC50) – broadly, the concentration needed to halve the response being measured – in data set [5] came to 3.6 ± 0.3 µM. In addition, the inhibition at 10 µM in [6] is 50%. The inhibition at 10 µM in [7] is 48%. Besides, in [8], the inhibition at 10 µM was 2%.

As for `COc1ccccc1-c1cc(-c2ccccc2)nc(N)c1C#N` [Compound 5, 2-amino-4-(2-methoxyphenyl)-6-phenylpyridine-3-carbonitrile], the inhibition at 0.1 µM was determined as 53% in [1], 5% in [3] and 26% in data set [4]. In [2], the Ki (usually a measure of affinity in units of concentration, obtained from inhibition or displacement) came out at 543 ± 13 nM. The inhibition at 10 µM is 28% in data set [5], 24% in data set [6], 30% in data set [7] and 3% in data set [8].

For `COc1ccc(-c2cc(-c3ccccc3)nc(N)c2C#N)c(OC)c1` [Compound 6, 2-amino-4-(2,4-dimethoxyphenyl)-6-phenylpyridine-3-carbonitrile], the inhibition at 0.1 µM in [1] was determined as 12%; in data set [3], 1%; in data set [4] it was 6%. In addition, the “% displacement at 0.1 μM (A2AR)” value in data set [2] is recorded as 1%. This compound returned an IC50 in data set [5] of 5.7 ± 0.3 µM. Also, the inhibition at 10 µM worked out at 51% in data set [6], 27% in [7] and 1% in data set [8].

Compound `COc1ccc(-c2cc(-c3ccccc3F)nc(N)c2C#N)cc1` [Compound 14, 2-amino-6-(2-fluorophenyl)-4-(4-methoxyphenyl)pyridine-3-carbonitrile] gave an inhibition constant Ki in data set [1] of 108 ± 6 nM. The “% displacement at 0.1 μM (A2AR)” value in data set [2] was 30%. The inhibition at 0.1 µM is 1% in data set [3] and 27% in data set [4]. The inhibition at 10 µM turned out to be 10% in [5], 22% in [6], 20% in data set [7] and 7% in data set [8].

As to `COc1ccc(-c2cc(-c3ccccc3C)nc(N)c2C#N)cc1` [Compound 15, 2-amino-4-(4-methoxyphenyl)-6-(2-methylphenyl)pyridine-3-carbonitrile], the inhibition at 0.1 µM is 6% in [1], 4% in data set [3] and 17% in [4]. Besides, in data set [2], the “% displacement at 0.1 μM (A2AR)” value was 32%. Moreover, the midpoint of inhibition in data set [5], the IC50, lay at 1.5 ± 0.2 µM. The inhibition at 10 µM in [6] was determined as 57%; in data set [7], 55%; in data set [8] it was 16%.

Turning to `COc1ccc(-c2cc(-c3ccco3)nc(N)c2C#N)cc1` [Compound 16, 2-amino-6-(furan-2-yl)-4-(4-methoxyphenyl)pyridine-3-carbonitrile], the melting point was 205 to 207 °C. Besides, in data set [3], the inhibition at 0.1 µM was 33%. Besides, the inhibition at 0.1 µM in data set [4] turned out to be 21%. Further, in data set [5], the IC50 turned out to be 3.2 ± 0.4 µM. In addition, the IC50 in [6] is 3.4 µM. In addition, the inhibition at 10 µM in [7] turned out to be 30%. For the same compound, the inhibition at 10 µM in data set [8] worked out at 2%.

On to `COc1ccc(-c2cc(-c3ccc(O)cc3)nc(N)c2C#N)cc1` [Compound 17, 2-amino-6-(4-hydroxyphenyl)-4-(4-methoxyphenyl)pyridine-3-carbonitrile], for which the inhibition at 0.1 µM in [1] amounted to 46%; in data set [3], 1%; in [4], 8%. For the same compound, the “% displacement at 0.1 μM (A2AR)” value in data set [2] worked out at 29%. The inhibition at 10 µM came to 65% in [5], 44% in [7] and 7% in [8]. This compound returned an IC50 in [6] of 3.5 µM.

For the compound `COc1ccccc1-c1cc(-c2ccccc2C)nc(N)c1C#N` [Compound 20, 2-amino-4-(2-methoxyphenyl)-6-(2-methylphenyl)pyridine-3-carbonitrile], the inhibition at 0.1 µM in [1] was determined as 12%; in data set [3] it was 3%; in data set [4] it was 6%. In addition, the “% displacement at 0.1 μM (A2AR)” value in data set [2] came to 50%. In data set [5], this compound showed an IC50 of 6.4 ± 0.4 µM. For the same compound, the inhibition at 10 µM was determined as 31% in [6], 23% in data set [7] and 12% in data set [8].

`COc1ccccc1-c1cc(-c2ccc(O)cc2)nc(N)c1C#N` [Compound 22, 2-amino-6-(4-hydroxyphenyl)-4-(2-methoxyphenyl)pyridine-3-carbonitrile]: the figures for the inhibition at 0.1 µM in data set [1], in data set [3] and in [4] were 8%, 1% and 2%, respectively. In addition, the “% displacement at 0.1 μM (A2AR)” value in data set [2] amounted to 1%. Besides, the half-inhibitory concentration (IC50) in data set [5] is 5.6 ± 0.5 µM. Moreover, the inhibition at 10 µM in data set [6] came to 63%; in data set [7] it was 16%; in [8], 9%.

For the compound `N#Cc1c(-c2ccco2)cc(-c2ccsc2)nc1N` [Compound 25, 2-amino-4-(furan-2-yl)-6-(thiophen-3-yl)pyridine-3-carbonitrile], the inhibition at 0.1 µM stood at 15% in data set [1], 5% in [3] and 2% in [4]. This compound also came in with a Ki in data set [2] of 55 ± 2 nM. The figures for the IC50 in [5] and in data set [7] were 5.1 ± 0.4 µM and 4.7 µM, respectively. The inhibition at 10 µM was determined as 48% in data set [6] and 14% in data set [8].
